# Test system: root-knot nematode (RKN), Meloidogyne incognita
# Experiment: Root-knot nematode control on tomato, pots infested 48 hours after soil treatment (set 1), gall rating
# Format: in vivo
# Settings: rating scale 0-10
# Method: Formulations AA to FF, excluding DD, were tested for efficacy and persistence in soil for controlling root-knot nematode (RKN), Meloidogyne incognita, on tomato. A three-week old tomato (Lycopersicon esculentum, var “Rutgers”) was planted in a 10 cm square pot containing a nonsterile 50:50 sand:soil mixture. Ten replicate pots (five replicates for two sets of tests) were prepared for each rate of application of test formulation. Stock dispersions of each of the test formulations were prepared by dispersing a sufficient amount of test material in 100 ml of water to give rates of application of 0.25, 0.5, 1, and 2 kg a.i./ha. Each pot received 10 ml of the appropriate suspension on the surface immediately around the tomato, and a control treatment for each of the two experimental set of pots received only water. Pots were also prepared as above with the same rates of the 100 ME cadusafos formulation and technical cadusafos. The RKN eggs used in the experiment were separated from a gelatinous matrix by vigorously shaking the roots of heavy galled tomato plants for four minutes in a 1% aqueous sodium hypochlorite solution. The resulting egg suspension was rapidly poured through nested 60, 325, and 500 mesh sieves. The eggs were collected on the 500 mesh sieve and gently rinsed with water to remove any excess sodium hypochlorite. The eggs were taken up in water, and the resulting aqueous suspension was appropriately diluted with water to give about 2000 eggs per plant which results in an effective inoculant level of about 1000 infective larvae per pot. The eggs were counted using a dissecting microscope. All the pots were infested with nematodes by pippetting the inoculum into the openings around the roots of the previously treated tomato transplants. Pots infested with nematodes 48 hours after soil treatment, hereafter referred to as “set 1”. Pots for examination of residual activity, hereafter referred to as “set 2”, were treated and maintained in the greenhouse for seven days prior to nematode infestations. Upon nematode infestation, the pots were maintained in the greenhouse for 28 days and monitored for phytotoxicity symptoms. At the conclusion of the 28 day period, the soil was washed away from the tomato plants roots and rated according to the following scheme: […]
compound,measurement,setting,value
CCOP(=O)(SC(C)CC)SC(C)CC (stereo not shown) [Technical],Mean Root-Knot Gall Rating,"infested 48 hours after treatment, rate 0.25 Kg/Ha",2.4
same,Mean Root-Knot Gall Rating,"infested 48 hours after treatment, rate 0.5 Kg/Ha",1.2
same,Mean Root-Knot Gall Rating,"second printing of Table 7, 48 hours after treatment, rate 0.25 Kg/Ha",2.4
same,Mean Root-Knot Gall Rating,"second printing of Table 7, 48 hours after treatment, rate 0.5 Kg/Ha",1.2

# Source: US6440443B1, “Microencapsulation formulations of cadusafos” (priority 1998, dated 2002)
